Assay results reported in article PMC10096453, “One-Pot Synthesis and Evaluation of Antioxidative Stress and Anticancer Properties of an Active Chromone Derivative” (Molecules, 2023).

Tests used:
HeLa cells [1] = test: Cellular ROS assay (ROS deep red fluorescence kit); format: cell-based; settings: pretreatment 50, 100, 150 μM for 24 h; 5 mM H2O2 30 min
Protocol: ROS is the main contributor to cell death. These reactive molecules are formed by several mechanisms and can be detected by various techniques. In order to investigate the level of cellular ROS after treatment with compounds, the accumulation of intracellular ROS in cells was quantified with a cellular ROS assay kit (ab186029, Abcam, Boston, USA) fluorescence assay. After pretreatment with 2f, 2j, and 3i at 50, 100, and 150 μM for 24 h, cell stress was induced with 5 mM hydrogen peroxide for 30 min. The cells in each well were collected and resuspended with a serum-free medium containing the ROS red probe. Subsequently, cells were incubated at 37 °C for 30 min in the dark, and fluorescence was read at Ex/Em = 650/675 nm.
In this study, Hela cells were seeded overnight at 20,000 cells/90 µL/well in a black wall/clear bottom 96-well plate. Cells included those untreated (control) and those pre-treated with compounds at various concentrations (50, 100, 150 μM) for 24 h. The ROS deep red assay solution (100 μL/well) was added and incubated at 5% CO2, 37 °C incubator for 30 min. The fluorescence signal was monitored at Ex/Em = 650/675 nm (cut off = 665 nm) with bottom read mode within 30 min (cellular ROS assay kit, ab186029, abcam).

HeLa cells [2] = test: Apoptosis, Annexin V & Dead Cell flow cytometry; format: cell-based; settings: IC50 concentration, 24 h
Protocol: Examining apoptosis induction by some samples was confirmed by the determination of annexin V (p ≤ 0.05) using the IC50 for 2b, 2e, 2f, 2j, and quercetin in the HeLa cell line (Figure 5a).
HeLa cells were seeded overnight at 1 × 10^5 cells/1.5 mL/well in a 6-well plate. […] The cells were […] and washed with PBS. The collected cells were diluted with serum-free medium to a suitable volume. The 100 μL of cell suspension was added to 100 μL of Muse^TM Annexin V & Dead Cell reagent and incubated for 20 min at room temperature. Cells were analyzed by flow cytometry (Guava Muse Cell Analyzer, Luminex, Austin, TX USA) with Guava suite software 3.4.

O=C(c1ccccc1)c1c(-c2ccccc2)oc2c(O)c(O)ccc2c1=O [2f, 3-Benzoyl-7,8-dihydroxy-2-phenyl-4H-chromen-4-one]
Cellular ROS fluorescence intensity vs H2O2-treated cells (HeLa cells [1]): significantly reduced | Apoptosis induction (HeLa cells [2]): induced apoptosis in tumor cells | Change in dead phase compared to the control (HeLa cells [2]): +5.8% | Change in early apoptosis phase compared to the control (HeLa cells [2]): +6.3% | Change in late apoptosis phase compared to the control (HeLa cells [2]): +1.2% | Change in live phase compared to the control (HeLa cells [2]): −12.1%

O=C(Oc1ccc2c(=O)c(C(=O)c3ccccc3)c(-c3ccccc3)oc2c1O)c1ccccc1 [2j, 3-Benzoyl-8-hydroxy-4-oxo-2-phenyl-4H-chromen-7-yl benzoate]
Cellular ROS fluorescence intensity vs H2O2-treated cells (HeLa cells [1]): significantly reduced
